{"source": "patent EP0089900B1", "about": "“New N-((2-oxo-1-pyrrolidinyl)acetyl)piperazines, the methods of producing such new compounds and their salts as well as pharmaceutical preparations for therapeutic use containing these compounds or salts” (PRODES S.A., priority 1982, dated 1983)", "key": {"anesthetized dogs": {"test_system": "anesthetized dogs", "experiment": "Electromagnetic blood flow measurement (vertebral/cerebral blood flow)", "type": "in vivo", "settings": "vertebral blood flow, administration via saphenous vein", "experimental": "After orotraqueal intubation, artificial respiration with normal air was instituted using a Manley Pul- movent respirator. The correct ventilation of the dogs was checked after all the surgical procedures by determining the pO2, pCO2 and pH in arterial blood samples, as well as several times during the experiment by means of an Astrup apparatus. Blood pressure (4) was measured in left saphenous artery by means of a Bell & Howell pressure transducer, and the heart rate by means of a Beckman ECG device.\nRecordings were made on an ink-writing Beckman polygraph. Left saphenous vein and right saphenous artery were canulated with polyethylene catheters for drug administration and blood collection respectively.\nVertebral blood flow was measured by a non-cannulating electromagnetic flowmeter (Carolina Medical Electronics) placed in the vertebral artery.\nThe Carolina digital flowmeter was connected to an Omniscribe Houston Instruments plotter.\nPiracetam and nicotinic acid were used as control drugs."}, "animals [1]": {"test_system": "animals", "experiment": "Protection against lethality: anoxia by CNK, survival time", "type": "in vivo"}, "mouse": {"test_system": "mouse", "experiment": "Protection against lethality: quick decapitation, gasping time", "type": "in vivo", "settings": "gasping time after decapitation of mouse", "description": "The second trial is the quick decapitation of mouse. The head has a typical mandibular movement, known as gasping, as searching the breathing air."}, "animals [2]": {"test_system": "animals", "experiment": "Protection against lethality: hypoxia-hypobara (decompression), survival time", "type": "in vivo"}, "Acute toxicity LD50": {"experiment": "Acute toxicity LD50", "settings": "in vivo; species and route not given"}}}
{"smiles": "NC(=O)CN1CCCC1=O", "note": "[(2-oxo-1-pyrrolidinyl)acetamide, reference compound]", "values": [{"measurement": "effect", "setting": "anesthetized dogs; no dose given", "result": "No effect"}, {"measurement": "anoxia by CNK", "setting": "animals [1]; dose 1000 mg/kg", "result": "No effect"}, {"measurement": "gasping", "setting": "mouse; dose 1000 mg/kg", "result": "No effect"}, {"measurement": "hypoxia hypobara", "setting": "animals [2]; dose 1000 mg/kg", "result": "No effect"}]}
{"smiles": "O=C1NC(=O)C(c2ccccc2)(c2ccccc2)N1", "note": "[Diphenylhydantoine, reference compound]", "values": [{"measurement": "anoxia by CNK", "setting": "animals [1]; dose 100 mg/kg", "result": "Active"}, {"measurement": "hypoxia hypobara", "setting": "animals [2]; dose 100 mg/kg", "result": "Active"}]}
{"smiles": "O=C(CN1CCCC1=O)N1CCN(CC=Cc2ccccc2)CC1", "note": "[N-[(2-oxo-1-pyrrolidinyl)-acetyl]-N'-cinnamylpiperazine]", "values": [{"measurement": "effect", "setting": "anesthetized dogs; dose 2,5 mg/kg", "result": "Active"}, {"measurement": "anoxia by CNK", "setting": "animals [1]; dose 300 mg/kg", "result": "Active"}, {"measurement": "LD50", "setting": "Acute toxicity LD50", "result": 1400, "unit": "mg/kg"}, {"measurement": "gasping", "setting": "mouse; dose 300 mg/kg", "result": "Active"}, {"measurement": "hypoxia hypobara", "setting": "animals [2]; dose 300 mg/kg", "result": "Active"}]}
{"smiles": "COc1ccc(CN2CCN(C(=O)CN3CCCC3=O)CC2)cc1", "note": "[N-[(2-oxo-1-pyrrolidinyl)acetyl]-N'-(p-methoxybenzyl)piperazine]", "values": [{"measurement": "effect", "setting": "anesthetized dogs; dose 1 mg/kg", "result": "Active"}, {"measurement": "anoxia by CNK", "setting": "animals [1]; dose 250 mg/kg", "result": "No effect"}, {"measurement": "LD50", "setting": "Acute toxicity LD50", "result": 1110, "unit": "mg/kg"}, {"measurement": "gasping", "setting": "mouse; dose 250 mg/kg", "result": "Active"}, {"measurement": "hypoxia hypobara", "setting": "animals [2]; dose 250 mg/kg", "result": "Active"}]}
{"smiles": "C=CCN1CCN(C(=O)CN2CCCC2=O)CC1", "note": "[N-[(2-oxo-1-pyrrolidinyl)acetyl]-N'-allylpiperazine]", "values": [{"measurement": "effect", "setting": "anesthetized dogs; dose 2,5 mg/kg", "result": "Active"}, {"measurement": "anoxia by CNK", "setting": "animals [1]; dose 500 mg/kg", "result": "Active"}, {"measurement": "LD50", "setting": "Acute toxicity LD50", "result": 4000, "unit": "mg/kg"}, {"measurement": "gasping", "setting": "mouse; dose 500 mg/kg", "result": "Active"}, {"measurement": "hypoxia hypobara", "setting": "animals [2]; dose 500 mg/kg", "result": "Active"}]}
{"smiles": "O=C(O)c1cccnc1", "note": "[Nicotinic acid, reference compound]", "values": [{"measurement": "effect", "setting": "anesthetized dogs; no dose given", "result": "No effect"}]}
